Columns and labels:
Type in all cases: in vivo
[1] = test system: Italian ryegrass (Lolium multiflorum); test: Test A preemergence, visual plant response rating; conditions: for Ryegrass, Italian plant response rating: 125 g ai/ha, preemergence, 0 to 100 scale, 0 no effect, 100 complete control; for Ryegrass, Italian plant response rating (0 to 100 scale): 500 g ai/ha Preemergence, approx. 10 days
How it was run: (§1)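 Preemergence: seeds in loam/sand blend given directed soil spray of compound in non-phytotoxic solvent with surfactant. Postemergence: plants 2–10 cm, one- to two-leaf stage, sprayed with same formulation. Visual injury rated vs untreated controls after ~10 days in greenhouse, 0 (no effect) to 100 (complete control).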

[2] = test system: barnyardgrass (Echinochloa crus-galli); test: Test A preemergence, visual plant response rating; conditions: for Barnyardgrass plant response rating: 125 g ai/ha, preemergence, 0 to 100 scale, 0 no effect, 100 complete control; for Barnyardgrass plant response rating (0 to 100 scale): 500 g ai/ha Preemergence, approx. 10 days
How it was run: as §1

[3] = test system: foxtail, giant (giant foxtail, Setaria faberii); test: Test A preemergence, visual plant response rating; conditions: for Foxtail, Giant plant response rating: 125 g ai/ha, preemergence, 0 to 100 scale, 0 no effect, 100 complete control; for Foxtail, Giant plant response rating (0 to 100 scale): 500 g ai/ha Preemergence, approx. 10 days
How it was run: as §1

kochia (Kochia scoparia) [4] = test: Test A preemergence, visual plant response rating; conditions: for Kochia plant response rating: 125 g ai/ha, preemergence, 0 to 100 scale, 0 no effect, 100 complete control; for Kochia plant response rating (0 to 100 scale): 500 g ai/ha Preemergence, approx. 10 days
How it was run: as §1

[5] = test system: pigweed (Amaranthus retroflexus); test: Test A preemergence, visual plant response rating; conditions: for Pigweed plant response rating: 125 g ai/ha, preemergence, 0 to 100 scale, 0 no effect, 100 complete control; for Pigweed plant response rating (0 to 100 scale): 500 g ai/ha Preemergence, approx. 10 days
How it was run: as §1

[6] = test system: ragweed (common ragweed, Ambrosia elatior); test: Test A preemergence, visual plant response rating; conditions: for Ragweed plant response rating: 125 g ai/ha, preemergence, 0 to 100 scale, 0 no effect, 100 complete control; for Ragweed plant response rating (0 to 100 scale): 500 g ai/ha Preemergence, approx. 10 days
How it was run: as §1

[7] = test system: Italian ryegrass (Lolium multiflorum); test: Test A postemergence, visual plant response rating; conditions: for Ryegrass, Italian plant response rating (0 to 100 scale): 500 g ai/ha, postemergence, 0 is no effect, 100 is complete control; for Ryegrass, Italian plant response rating: Postemergence, 125 g ai/ha, 0 to 100 scale (0 no effect, 100 complete control)
How it was run: as §1

[8] = test system: barnyardgrass (Echinochloa crus-galli); test: Test A postemergence, visual plant response rating; conditions: for Barnyardgrass plant response rating (0 to 100 scale): 500 g ai/ha, postemergence, 0 is no effect, 100 is complete control; for Barnyardgrass plant response rating: Postemergence, 125 g ai/ha, 0 to 100 scale (0 no effect, 100 complete control)
How it was run: as §1

[9] = test system: blackgrass (Alopecurus myosuroides); test: Test A postemergence, visual plant response rating; conditions: for Blackgrass plant response rating (0 to 100 scale): 500 g ai/ha, postemergence, 0 is no effect, 100 is complete control; for Blackgrass plant response rating: Postemergence, 125 g ai/ha, 0 to 100 scale (0 no effect, 100 complete control)
How it was run: as §1

corn (Zea mays) = test: Test A postemergence, visual plant response rating; conditions: for Corn plant response rating (0 to 100 scale): 500 g ai/ha, postemergence, 0 is no effect, 100 is complete control; for Corn plant response rating: Postemergence, 125 g ai/ha, 0 to 100 scale (0 no effect, 100 complete control)
How it was run: as §1

[10] = test system: foxtail, giant (giant foxtail, Setaria faberii); test: Test A postemergence, visual plant response rating; conditions: for Foxtail, Giant plant response rating (0 to 100 scale): 500 g ai/ha, postemergence, 0 is no effect, 100 is complete control; for Foxtail, Giant plant response rating: Postemergence, 125 g ai/ha, 0 to 100 scale (0 no effect, 100 complete control)
How it was run: as §1

[11] = test system: galium (catchweed bedstraw, Galium aparine); test: Test A postemergence, visual plant response rating; conditions: for Galium plant response rating (0 to 100 scale): 500 g ai/ha, postemergence, 0 is no effect, 100 is complete control; for Galium plant response rating: Postemergence, 125 g ai/ha, 0 to 100 scale (0 no effect, 100 complete control)
How it was run: as §1

kochia (Kochia scoparia) [12] = test: Test A postemergence, visual plant response rating; conditions: for Kochia plant response rating (0 to 100 scale): 500 g ai/ha, postemergence, 0 is no effect, 100 is complete control; for Kochia plant response rating: Postemergence, 125 g ai/ha, 0 to 100 scale (0 no effect, 100 complete control)
How it was run: as §1

[13] = test system: pigweed (Amaranthus retroflexus); test: Test A postemergence, visual plant response rating; conditions: for Pigweed plant response rating (0 to 100 scale): 500 g ai/ha, postemergence, 0 is no effect, 100 is complete control; for Pigweed plant response rating: Postemergence, 125 g ai/ha, 0 to 100 scale (0 no effect, 100 complete control)
How it was run: as §1

[14] = test system: ragweed (common ragweed, Ambrosia elatior); test: Test A postemergence, visual plant response rating; conditions: for Ragweed plant response rating (0 to 100 scale): 500 g ai/ha, postemergence, 0 is no effect, 100 is complete control; for Ragweed plant response rating: Postemergence, 125 g ai/ha, 0 to 100 scale (0 no effect, 100 complete control)
How it was run: as §1

[15] = test system: wheat (Triticum aestivum); test: Test A postemergence, visual plant response rating; conditions: for Wheat plant response rating (0 to 100 scale): 500 g ai/ha, postemergence, 0 is no effect, 100 is complete control; for Wheat plant response rating: Postemergence, 125 g ai/ha, 0 to 100 scale (0 no effect, 100 complete control)
How it was run: as §1

[16] = test system: barnyardgrass (Echinochloa crus-galli); test: Test B flooded paddy test, visual plant response rating; conditions: 250 g ai/ha, Flood, applied to paddy water, 2-leaf stage, evaluated after 13 to 15 days
How it was run: (§2)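 Rice, umbrella sedge, ducksalad and barnyardgrass grown to 2-leaf stage; pots flooded 3 cm above soil and compound applied directly to paddy water, depth maintained.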

[17] = test system: ducksalad (Heteranhera limosa); test: as above; conditions: 250 g ai/ha, Flood, applied to paddy water, 2-leaf stage, evaluated after 13 to 15 days
How it was run: as §2

rice (Oryza sativa) = test: as above; conditions: 250 g ai/ha, Flood, applied to paddy water, 2-leaf stage, evaluated after 13 to 15 days
How it was run: as §2

[18] = test system: sedge, umbrella (small-flower umbrella sedge, Cyperus difformis); test: as above; conditions: 250 g ai/ha, Flood, applied to paddy water, 2-leaf stage, evaluated after 13 to 15 days
How it was run: as §2

| SMILES | Ryegrass, Italian plant response rating [1] | Ryegrass, Italian plant response rating (0 to 100 scale) [1] | Barnyardgrass plant response rating [2] | Barnyardgrass plant response rating (0 to 100 scale) [2] | Foxtail, Giant plant response rating [3] | Foxtail, Giant plant response rating (0 to 100 scale) [3] | Kochia plant response rating (kochia (Kochia scoparia) [4]) | Kochia plant response rating (0 to 100 scale) (kochia (Kochia scoparia) [4]) | Pigweed plant response rating [5] | Pigweed plant response rating (0 to 100 scale) [5] | Ragweed plant response rating [6] | Ragweed plant response rating (0 to 100 scale) [6] | Ryegrass, Italian plant response rating (0 to 100 scale) [7] | Ryegrass, Italian plant response rating [7] | Barnyardgrass plant response rating (0 to 100 scale) [8] | Barnyardgrass plant response rating [8] | Blackgrass plant response rating (0 to 100 scale) [9] | Blackgrass plant response rating [9] | Corn plant response rating (0 to 100 scale) (corn (Zea mays)) | Corn plant response rating (corn (Zea mays)) | also measured |
| --- | --- | --- | --- | --- | --- | --- | --- | --- | --- | --- | --- | --- | --- | --- | --- | --- | --- | --- | --- | --- | --- |
| C#CCO/N=C(/c1c(O)c(C)nn(C)c1=O)c1ccc(F)c2ccccc12 [Compound 109, 4-[(E)-(4-fluoro-1-naphthalenyl)[(2-propyn-1-yloxy)imino]methyl]-5-hydroxy-2,6-dimethyl-3(2H)-pyridazinone] | 100 | 100 | 90 | 100 | 100 | 100 | 10 | 50 | 100 | 100 | 90 | 100 | 100 | 100 | 90 | 90 | 100 | 90 | 70 | 20 | Foxtail, Giant plant response rating (0 to 100 scale) [10]: 90; Foxtail, Giant plant response rating [10]: 80; Galium plant response rating (0 to 100 scale) [11]: 100; Galium plant response rating [11]: 100; Kochia plant response rating (0 to 100 scale) (kochia (Kochia scoparia) [12]): 90; Kochia plant response rating (kochia (Kochia scoparia) [12]): 70; Pigweed plant response rating (0 to 100 scale) [13]: 100; Pigweed plant response rating [13]: 90; Ragweed plant response rating (0 to 100 scale) [14]: 90; Ragweed plant response rating [14]: 80; Wheat plant response rating (0 to 100 scale) [15]: 90; Wheat plant response rating [15]: 90; Plant response rating, Barnyardgrass (0 to 100 scale, 0 is no effect, 100 is complete control) [16]: 50; Plant response rating, Ducksalad (0 to 100 scale, 0 is no effect, 100 is complete control) [17]: 40; Plant response rating, Rice (0 to 100 scale, 0 is no effect, 100 is complete control) (rice (Oryza sativa)): 45; Plant response rating, Sedge, Umbrella (0 to 100 scale, 0 is no effect, 100 is complete control) [18]: 60 |
| CON=C(c1c(O)c(C)nn(C)c1=O)c1cccc2ccc(Cl)cc12 [Compound 110] | 60 | 70 | 70 | 80 | 60 | 100 | 0 | 10 | 50 | 100 | 40 | 90 | 80 | 30 | 70 | 50 | 90 | 90 | 30 | 10 | Foxtail, Giant plant response rating (0 to 100 scale) [10]: 90; Foxtail, Giant plant response rating [10]: 50; Galium plant response rating (0 to 100 scale) [11]: 100; Galium plant response rating [11]: 90; Kochia plant response rating (0 to 100 scale) (kochia (Kochia scoparia) [12]): 60; Kochia plant response rating (kochia (Kochia scoparia) [12]): 50; Pigweed plant response rating (0 to 100 scale) [13]: 100; Pigweed plant response rating [13]: 90; Ragweed plant response rating (0 to 100 scale) [14]: 90; Ragweed plant response rating [14]: 60; Wheat plant response rating (0 to 100 scale) [15]: 0; Wheat plant response rating [15]: 0; Plant response rating, Barnyardgrass (0 to 100 scale, 0 is no effect, 100 is complete control) [16]: 0; Plant response rating, Ducksalad (0 to 100 scale, 0 is no effect, 100 is complete control) [17]: 0; Plant response rating, Rice (0 to 100 scale, 0 is no effect, 100 is complete control) (rice (Oryza sativa)): 0; Plant response rating, Sedge, Umbrella (0 to 100 scale, 0 is no effect, 100 is complete control) [18]: 0 |
